Measurements from ChEMBL document CHEMBL1129141, “Synthesis, characterization, and anti-HIV activity of some 2-p-X-phenyl-1,3-N,N-diphenyl-amidines” (Bioorg Med Chem Lett, 1996).

Assays:
[1] = system: Human immunodeficiency virus 1; assay: Compound was tested for the drug concentration which reduces viral antigen production by 50%; assay type: functional, organism-based
[2] = Compound was tested for the drug concentration which reduces the viability of uninfected C8166 cells by 50%; assay type: cell-based; conditions: human, read-out: TC50 (the source's name)
[3] = SI (selectivity index) is the ratio of TC50 to EC50; assay type: functional

SMILES	EC50 [1] [µM]	CC50 [2] [µM]	SI [3]
COc1ccc(/C(=N/c2ccccc2)Nc2ccccc2)cc1	> 80	80	< 1
Cc1cn([C@H]2C[C@H](N=[N+]=[N-])[C@@H](CO)O2)c(=O)[nH]c1=O [ZIDOVUDINE]	0.016	> 1000	> 6
Clc1ccc(/C(=N/c2ccccc2)Nc2ccccc2)cc1	8	1000	125
Brc1ccc(/C(=N/c2ccccc2)Nc2ccccc2)cc1	100	200	2
c1ccc(/N=C(\Nc2ccccc2)c2ccccc2)cc1	> 400	400	< 1
Cc1ccc(/C(=N/c2ccccc2)Nc2ccccc2)cc1	> 500	> 500	< 1
O=[N+]([O-])c1ccc(/C(=N/c2ccccc2)Nc2ccccc2)cc1	20	80	4
